According to the NIST ThermoML archive (doi:10.1016/j.fluid.2008.03.012):

Test: excess molar enthalpy (molar enthalpy of mixing); xn = mol fraction of the nth substance listed
Conditions: Liquid, Flow calorimetry

CCOC(=O)CC(C)=O [ethyl 3-oxobutanoate] + CC(C)O
excess molar enthalpy [kcal/mol]
Conditions | 298.15 K | 313.15 K | 328.15 K
100 kPa, x1 = 0.0997 | 0.236 | 0.266 | 0.283
100 kPa, x1 = 0.1998 | 0.369 | 0.422 | 0.454
100 kPa, x1 = 0.2999 | 0.446 | 0.518 | 0.556
100 kPa, x1 = 0.3499 | 0.472 | 0.547 | 0.586
100 kPa, x1 = 0.4003 | 0.488 | 0.565 | 0.605
100 kPa, x1 = 0.4496 | 0.496 | 0.574 | 0.612
100 kPa, x1 = 0.5003 | 0.498 | 0.573 | 0.61
100 kPa, x1 = 0.5494 | 0.491 | 0.562 | 0.597
100 kPa, x1 = 0.5995 | 0.476 | 0.543 | 0.573
100 kPa, x1 = 0.6505 | 0.452 | 0.513 | 0.538
100 kPa, x1 = 0.7008 | 0.42 | 0.473 | 0.494
100 kPa, x1 = 0.7999 | 0.328 | 0.359 | 0.373
100 kPa, x1 = 0.9006 | 0.185 | 0.198 | 0.203
10000 kPa, x1 = 0.0994 | 0.231 | 0.26 | 0.276
10000 kPa, x1 = 0.1993 | 0.358 | 0.409 | 0.447
10000 kPa, x1 = 0.2992 | 0.435 | 0.498 | 0.548
10000 kPa, x1 = 0.3491 | 0.459 | 0.527 | 0.578
10000 kPa, x1 = 0.3995 | 0.477 | 0.544 | 0.597
10000 kPa, x1 = 0.4488 | 0.485 | 0.553 | 0.604
10000 kPa, x1 = 0.4995 | 0.487 | 0.551 | 0.602
10000 kPa, x1 = 0.5486 | 0.482 | 0.541 | 0.59
10000 kPa, x1 = 0.5987 | 0.468 | 0.522 | 0.566
10000 kPa, x1 = 0.6497 | 0.447 | 0.491 | 0.532
10000 kPa, x1 = 0.7001 | 0.417 | 0.452 | 0.487
10000 kPa, x1 = 0.7994 | 0.326 | 0.342 | 0.367
10000 kPa, x1 = 0.9003 | 0.184 | 0.187 | 0.199
